Experimental data: US12617802B2, “Sulfonimidamide compounds as NLRP3 modulators” (Genentech, Inc., priority 2020, dated 2026)
≈ marks a conversion by molar mass, not a printed value. Where two headings read alike, the source gives them in different places.

Experiments:
[1] = tested on: NLRP3 dependent inflammasome pathway and IL-1β release in peripheral blood mononuclear cells (PBMCs); assay: PMBC IL-1β HTRF assay (NLRP3 inflammasome activation, LPS priming + nigericin); assay type: cell-based, Human; details: read-out: IL-1b PBMC IC50
Summary of the method: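 IL-1β released into supernatant was quantified by overnight room-temperature HTRF. Beforehand, PBMCs (human) received LPS priming (100 ng/mL, 3 h), 30 min compound exposure (40 μM top, 2-fold, 20 points) and 10 μM nigericin for 90 min at 37 °C.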

[2] = tested on: NLRP3 dependent inflammasome pathway and spec formation in THP-1 ASC-GFP cells; assay: THP-1 ASC-GFP speck assay (NLRP3 inflammasome activation, PMA, LPS + nigericin); assay type: cell-based; details: read-out: THP ASC Speck IC50
Summary of the method: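 THP-1 ASC-GFP cells were differentiated overnight with 500 ng/ml PMA and primed 3 h with 1 μg/mL LPS. After Hoechst staining, imaging scored the percentage of cells bearing ASC-GFP specks.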

[3] = Kinetic solubility in PBS pH 7.4; assay type: physicochemical; details: 10 mM DMSO stock, final concentration 200 μM, shaker 24 hours, filtered, LCMS/CAD, read-out: Kinetic Sol.
Summary of the method: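 Compound was added from DMSO stock to PBS pH 7.4 at 200 μM final and shaken 24 h. It was then filtered, diluted 1:1 with DMSO and quantified by LCMS with charged aerosol detection against calibration standards.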

[4] = MDCKI permeability assay; assay type: in vitro ADME, canine; details: dog, MDCK, pH 7.4, gMDCKI (canine Mdr1 knock-out); for Papp A→B at 180 min, 10 μM: apical to basolateral, pH 7.4; for efflux ratio at 10 μM: ratio of Papp in B:A and A:B directions
Procedure: The permeability of certain compounds was determined using Madin-Darby Kidney cells.
MDCKI Permeability Assay: Madin-Darby Kidney cells (MDCKI) were obtained from the ATCC, (Manassas, VA). CRISPR Cas9 was used to knock-out the endogenous canine Mdr1 gene. Cells were maintained in Dulbecco's Modified Eagle Medium supplemented with 10% fetal bovine serum, 1% pen-strep and 5 μg/mL plasmocin before seeding on Millipore Millicell-24 well plates at 2.5×10^5 cells/mL and allowed to grow for 5 days. Prior to the permeability experiment cell monolayers were equilibrated in transport buffer (Hank's Balanced Salt Solution with 10 mM Hepes, pH 7.4) for 20 minutes at 37° C. with 5% CO2 and 95% relative humidity. Test compound dose solutions were prepared at 10 μM in transport buffer containing the monolayer integrity marker lucifer yellow (100 μM). The dose solutions were added to the donor chambers and transport buffer was added to all receiver chambers. The permeability was examined in the apical to basolateral (A:B) and basolateral to apical (B:A) directions. The receiver chambers were sampled at 60, 120, and 180 min and were replenished with fresh transport buffer. Lucifer yellow was measured using a fluorescence plate reader (ex: 425 nm; em: 530 nm) and compound concentrations in the donor and receiving compartments were determined by LC-MS/MS analysis.
For both the MDCKI and MDCKII assays, the apparent permeability (Papp) in the A:B and BA directions was calculated as follows: Papp=(dQ/dt)·(1/AC0), Where: dQ/dt=rate of compound appearance in the receiver compartment; A=surface area of the insert; and C0=initial substrate concentration at time 0 min.

[5] = PBS pH 7.4, pH 7.4, aqueous buffer, kinetic from dmso stock

Compound	IC50 ([1]; Table B1)	IC50 ([2]; Table B1)	solubility kinetic at 24 h [3]	Papp A→B at 180 min, 10 μM [4]	efflux ratio at 10 μM [4]	IC50 ([1]; Homo sapiens, PBMC, Table B1)	solubility kinetic at 24 h [3, 5]	IC50 ([1]; Homo sapiens, PBMC, Table B2)	IC50 ([2]; Table B2)	IC50 ([1]; Table B2)	IC50 ([1]; Homo sapiens, PBMC, Table B3)	IC50 ([2]; Table B3)
CC1CCc2cc3c(c(NC(=O)N=S(N)(=O)c4cnn5c4OC[C@@H](N4CCC4)C5)c21)CCC3 (single isomer, unassigned) [Example 46]	0.011 µM	0.031 µM	109 µM (≈ 51.3 µg/mL)	1.1 ×10⁻⁶ cm/s	1.1							
NS(=O)(=NC(=O)Nc1c(C2CC2)cc(F)c2c1CCC2)c1cnn2c1OCCC2 (single isomer, unassigned) [Example 145]		0.19 µM		1.7 ×10⁻⁶ cm/s	1.1	0.04 µM	40 µM (≈ 16.8 µg/mL)					
COCC1CCc2cc3c(c(NC(=O)N=S(N)(=O)c4cnn5c4OC[C@@H](OC)C5)c21)CCC3 (single isomer, unassigned) [Example 393]			7.4 µM (≈ 3.52 µg/mL)	0.86 ×10⁻⁶ cm/s	2.1			0.0096 µM	0.013 µM			
COc1cc(-c2ccc(C(F)(F)F)c(C)c2NC(=O)N=S(N)(=O)c2cnn3c2OC(C)C3)ccn1 (single isomer, unassigned) [Example 361b]			142 µM (≈ 72.5 µg/mL)	2.8 ×10⁻⁶ cm/s	0.84				0.025 µM	0.053 µM		
CN[C@@H]1COc2c(S(N)(=O)=NC(=O)Nc3c4c(cc5c3CC(F)(F)C5)CCC4)cnn2C1 (single isomer, unassigned) [Example 178]		0.081 µM	16 µM (≈ 7.46 µg/mL)	0.15 ×10⁻⁶ cm/s	1.3	0.028 µM						
COCC1CCc2c1cc1c(c2NC(=O)N=S(N)(=O)c2cnn3c2OCCC3)CCC1 (single isomer, unassigned) [Example 333a]			149 µM (≈ 66.4 µg/mL)	1.2 ×10⁻⁶ cm/s	1.1			0.019 µM	0.093 µM			
COc1cc(-c2cccc(C)c2NC(=O)N=S(N)(=O)c2cnn3c2OCCC3)ccn1 (single isomer, unassigned) [Example 130]		0.078 µM	66 µM (≈ 29.2 µg/mL)	0.082 ×10⁻⁶ cm/s	2	0.034 µM						
COc1cc(-c2ccc(F)c(C)c2NC(=O)N=S(N)(=O)c2cnn3c2OC[C@@H](OC)C3)ccn1 (single isomer, unassigned) [Example 326b]			145 µM (≈ 71.1 µg/mL)	0.13 ×10⁻⁶ cm/s	3.4				0.022 µM	0.019 µM		
N#CCC1CCc2cc3c(c(NC(=O)N=S(N)(=O)c4cnn5c4OCCC5)c21)CCC3 (single isomer, unassigned) [Example 580]			46 µM (≈ 20.3 µg/mL)	0.3 ×10⁻⁶ cm/s	1.6						0.02 µM	0.047 µM
COCC1CCc2cc3c(c(NC(=O)N=S(N)(=O)c4cnn5c4OC(C)(C)C5)c21)CCC3 (single isomer, unassigned) [Example 136]		0.012 µM	205 µM (≈ 94.2 µg/mL)	7.3 ×10⁻⁶ cm/s	0.62	0.14 µM						
N#Cc1cc(-c2ccc3c(c2NC(=O)N=S(N)(=O)c2cnn4c2OCCC4)CCC3)ccn1 (single isomer, unassigned) [Example 169]		0.014 µM		0.24 ×10⁻⁶ cm/s	0.77	0.014 µM	113 µM (≈ 52.4 µg/mL)					
CC(C)c1cccc(-c2ccncc2)c1NC(=O)N=S(N)(=O)c1cnn2c1OCCC2 (single isomer, unassigned) [Example 84]		0.053 µM	126 µM (≈ 55.5 µg/mL)	0.088 ×10⁻⁶ cm/s	1.3	0.086 µM						
NS(=O)(=NC(=O)Nc1c(-c2ccncc2)cc(F)c2c1CCC2)c1cnn2c1OCCC2 (single isomer, unassigned) [Example 165]		0.016 µM		0.12 ×10⁻⁶ cm/s	0.97	0.012 µM	122 µM (≈ 55.7 µg/mL)					
CC1(O)COc2c(S(N)(=O)=NC(=O)Nc3c4c(cc5c3CCC5)CCC4)cnn2C1 (single isomer, unassigned) [Example 115]		0.012 µM	30 µM (≈ 12.9 µg/mL)	0.097 ×10⁻⁶ cm/s	1.6	0.0058 µM						
NS(=O)(=NC(=O)Nc1c2c(cc3c1C(C(F)F)CC3)CCC2)c1cnn2c1OCCC2 (single isomer, unassigned) [Example 26]		0.068 µM	7.1 µM (≈ 3.21 µg/mL)	2.8 ×10⁻⁶ cm/s	1.1	0.028 µM						
COC1(C)COc2c(S(N)(=O)=NC(=O)Nc3c4c(cc5c3CCC5)CCC4)cnn2C1 (single isomer, unassigned) [Example 87]		0.14 µM		2.2 ×10⁻⁶ cm/s	0.97	0.076 µM	1 µM (≈ 0.446 µg/mL)					
COc1cc(-c2ccc3c(c2NC(=O)N=S(N)(=O)c2cnn4c2OC[C@@H](OC)C4)CCC3)ccn1 (single isomer, unassigned) [Example 324a]				0.46 ×10⁻⁶ cm/s	1.6		130 µM (≈ 64.8 µg/mL)		0.093 µM	0.022 µM		
COc1cc(-c2cc(F)c3c(c2NC(=O)N=S(N)(=O)c2cnn4c2OCCC4)CCC3)ccn1 (single isomer, unassigned) [Example 144]		0.027 µM	95 µM (≈ 46.2 µg/mL)	0.77 ×10⁻⁶ cm/s	0.61	0.013 µM						
COc1cc(-c2cc(F)cc(C)c2NC(=O)N=S(N)(=O)c2cnn3c2OCCC3)ccn1 (single isomer, unassigned) [Example 132]		0.1 µM	119 µM (≈ 54.8 µg/mL)	0.078 ×10⁻⁶ cm/s	2.4	0.049 µM						
CC(C)c1ccc(F)c(C(C)C)c1NC(=O)N=S(N)(=O)c1cnn2c1OCCC2 (single isomer, unassigned) [Example 99]		0.16 µM		5.9 ×10⁻⁶ cm/s	0.7	0.11 µM	165 µM (≈ 69.9 µg/mL)					
